24 compounds from US20090264401A1, “SUBSTITUTED PYRIMIDIN-5-CARBOXAMIDES 281” (AstraZeneca AB, priority 2008, published 2009) can be followed below.

By inhibition is commonly meant the change of the read-out against control, counted positive when it falls. For orientation: IC50 means the concentration at which inhibition is half-maximal.

For this test, the target named is T1, human 11βHSD1 enzyme (Homo sapiens, UniProt P28845).
T1 construct: baculovirus expressed N terminal 6-His tagged full length human 11βHSD1 enzyme; 6-His (N); made in house
T1 sequence (P28845 whole entry): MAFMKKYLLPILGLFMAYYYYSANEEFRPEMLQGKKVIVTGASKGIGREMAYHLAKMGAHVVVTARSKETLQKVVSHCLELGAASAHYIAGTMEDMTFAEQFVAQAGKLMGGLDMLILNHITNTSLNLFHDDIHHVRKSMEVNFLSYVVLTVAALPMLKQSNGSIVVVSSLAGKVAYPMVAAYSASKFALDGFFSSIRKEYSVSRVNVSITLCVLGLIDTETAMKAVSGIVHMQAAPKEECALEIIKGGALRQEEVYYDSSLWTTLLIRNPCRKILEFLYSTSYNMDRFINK
In words: 11βHSD1 cortisone to cortisol conversion, competitive HTRF assay. Type of test: biochemical. Conditions: for inhibition at 30 µM: human 11-βHSD, test concentration of 30 μM of compound. In short, it runs like this: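 Enzyme was baculovirus-expressed, N-terminal 6-His-tagged full-length human 11βHSD1, purified on a copper chelate column. Compounds were added in buffer containing 1% DMSO at 10-fold final concentration.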
(TR-FRET usually uses a lanthanide donor and a delayed reading to cut background.)

In the case of `O=C(N[C@H]1C2CC3CC1C[C@@](O)(C3)C2)c1cnc(N2CC(F)(F)C2)nc1C1CC1` [Example 52, 4-cyclopropyl-2-(3,3-difluoroazetidin-1-yl)-N-[(2r,5s)-5-hydroxyadamantan-2-yl]pyrimidine-5-carboxamide], the inhibition at 30 µM is 92.5%.
For the compound `O=C(N[C@H]1C2CC3CC1C[C@@](O)(C3)C2)c1cnc(OC2CCCC2)nc1C1CC1` [Example 77, 2-(cyclopentyloxy)-4-cyclopropyl-N-[(2r,5s)-5-hydroxyadamantan-2-yl]pyrimidine-5-carboxamide], the inhibition at 30 µM was determined as 90.9%.
Still for that read-out and setting: the result for `O=C(N[C@H]1C2CC3CC1C[C@@](O)(C3)C2)c1cnc(N2CCOC(CO)C2)nc1C1CCCC1` (stereo partly shown) [Example 145, 4-cyclopentyl-N-[(2r,Ss)-5-hydroxyadamantan-2-yl]-2-[2-(hydroxymethyl)morpholin-4-yl]pyrimidine-5-carboxamide] reads 92.9%; that for `O=C(N[C@H]1C2CC3CC1C[C@@](O)(C3)C2)c1cnc(N2CCSCC2)nc1C1CCCC1` [Example 114, 4-Cyclopentyl-N-[(2s,5r)-5-hydroxyadamantan-2-yl]-2-thiomorpholin-4-ylpyrimidine-5-carboxamide], 106%; that for `O=C(N[C@H]1C2CC3CC1C[C@@](O)(C3)C2)c1cnc(NC2CC2)nc1[C@H]1CCCO1` [Example 170, 2-(cyclopropylamino)-N-[(2r,5s)-5-hydroxyadamantan-2-yl]-4-[(2R)-oxolan-2-yl]pyrimidine-5-carboxamide], 94.4%.
Same read-out and setting: for `Cc1ncc(C(=O)N[C@H]2C3CC4CC2C[C@@](O)(C4)C3)c(C2CCC(F)(F)C2)n1` (stereo partly shown) [Example 184, 4-(3,3-Difluorocyclopentyl)-N-[(2r,5s)-5-hydroxyadamantan-2-yl]-2-methylpyrimidine-5-carboxamide] the value was 108%.
`CS(=O)(=O)N1CCN(c2ncc(C(=O)N[C@H]3C4CC5CC3C[C@@](O)(C5)C4)c(C3CCCC3)n2)CC1` [Example 143, 4-cyclopentyl-N-[(2r,5s)-5-hydroxyadamantan-2-yl]-2-(4-methylsulfonylpiperazin-1-yl)pyrimidine-5-carboxamide]: the inhibition at 30 µM came to 95%.
On the same count and under the same terms, for `COCCN1CCN(c2ncc(C(=O)N[C@H]3C4CC5CC3C[C@@](O)(C5)C4)c(C3CCC3)n2)CC1` [Example 87, 4-cyclobutyl-N-[(2r,5s)-5-hydroxyadamantan-2-yl]-2-[4-(2-methoxyethyl)piperazin-1-yl]pyrimidine-5-carboxamide] the value was 95.7%; for `O=C(N[C@H]1C2CC3CC1C[C@@](O)(C3)C2)c1cnc(N2CC(F)(F)C2)nc1C1CCC1` [Example 89, 4-cyclobutyl-2-(3,3-difluoroazetidin-1-yl)-N-[(2r,5s)-5-hydroxyadamantan-2-yl]pyrimidine-5-carboxamide], 95.5%.
Turning to `CS(=O)(=O)N1CCN(c2ncc(C(=O)N[C@H]3C4CC5CC3C[C@@](O)(C5)C4)c(C3CC3)n2)CC1` [Example 70, 4-cyclopropyl-N-[(2r,5s)-5-hydroxyadamantan-2-yl]-2-(4-methylsulfonylpiperazin-1-yl)pyrimidine-5-carboxamide], the inhibition at 30 µM is 98%.
Still for that read-out and setting: the result for `CN(C)c1ncc(C(=O)N[C@H]2C3CC4CC2C[C@@](O)(C4)C3)c(C2CC2)n1` [Example 61, 4-cyclopropyl-2-(dimethylamino)-N-[(2r,5s)-5-hydroxyadamantan-2-yl]pyrimidine-5-carboxamide] reads 105%.
Take `Cc1ncc(C(=O)N[C@H]2C3CC4CC2C[C@@](O)(C4)C3)c(OC(C)C)n1` [Example 202, N-[(2r,5s)-5-hydroxyadamantan-2-yl]-2-methyl-4-propan-2-yloxypyrimidine-5-carboxamide]: the inhibition at 30 µM amounted to 102%.
The same measure, in the same setting: for `CC(C)Oc1ncc(C(=O)N[C@H]2C3CC4CC2C[C@@](O)(C4)C3)c(C2CC2)n1` [Example 76, 4-cyclopropyl-N-[(2r,5s)-5-hydroxyadamantan-2-yl]-2-isopropoxypyrimidine-5-carboxamide] the value was 96.1%.
The same measure, in the same setting: for `CNc1ncc(C(=O)N[C@H]2C3CC4CC2C[C@@](O)(C4)C3)c([C@H]2CCCO2)n1` [Example 167, N-[(2r,5s)-5-hydroxyadamantan-2-yl]-2-methylamino-4-[(2R)-oxolan-2-yl]pyrimidine-5-carboxamide] the value was 101%; for `CCCSc1ncc(C(=O)N[C@H]2C3CC4CC2C[C@@](O)(C4)C3)c(NC)n1` [Example 22, N-[(2r,5s)-5-hydroxyadamantan-2-yl]-4-methylamino-2-propylsulfanylpyrimidine-5-carboxamide], 89.5%.
For the compound `COc1nc(OC2CCC2)ncc1C(=O)N[C@H]1C2CC3CC1C[C@@](O)(C3)C2` [Example 208, 2-(cyclobutyloxy)-N-[(2r,5s)-5-hydroxytricyclo[3.3.1.13,7]dec-2-yl]-4-methoxypyrimidine-5-carboxamide], the inhibition at 30 µM came out at 102%.
Regarding `O=C(N[C@H]1C2CC3CC1C[C@@](O)(C3)C2)c1cnc(OC2COC2)nc1C1CC1` [Example 78, 4-cyclopropyl-N-[(2r,5s)-5-hydroxyadamantan-2-yl]-2-(oxetan-3-yloxy)pyrimidine-5-carboxamide], the inhibition at 30 µM stood at 93.1%.
Regarding `COc1ncc(C(=O)N[C@H]2C3CC4CC2C[C@@](O)(C4)C3)c(C2CC2)n1` [Example 33, 4-Cyclopropyl-N-[(2r,5s)-5-hydroxyadamantan-2-yl]-2-methoxypyrimidine-5-carboxamide], the inhibition at 30 µM worked out at 97.5%. Moreover, where the note is “recombinant N terminal 6-His tagged full length human 11βHSD1, cortisone 160 nM, 25 minutes at 37° C.”, the IC50 stood at 33 nM.
Take `O=C(N[C@H]1C2CC3CC1C[C@](O)(C3)C2)c1cnc(NC2CCC2)nc1C1CCCC1` [Example 129, 4-cyclopentyl-2-(cyclobutylamino)-N-[(2r,5s)-5-hydroxyadamantan-2-yl]pyrimidine-5-carboxamide]: the inhibition at 30 µM came to 95.5%.
The same measure, in the same setting: the result for `NCc1ncc(C(=O)N[C@H]2C3CC4CC2C[C@@](O)(C4)C3)c(C2CCCC2)n1` [Example 152, 2-(Aminomethyl)-4-cyclopentyl-N-[(2r,5s)-5-hydroxyadamantan-2-yl]pyrimidine-5-carboxamide] reads 97.8%; that for `CCOc1nc(NC2COC2)ncc1C(=O)N[C@H]1C2CC3CC1C[C@@](O)(C3)C2` [Example 211, 4-ethoxy-N-[(2r,5s)-5-hydroxytricyclo[3.3.1.13,7]dec-2-yl]-2-(oxetan-3-ylamino)pyrimidine-5-carboxamide], 98.4%; that for `COc1nc(N2C[C@@H](C)O[C@@H](C)C2)ncc1C(=O)N[C@H]1C2CC3CC1C[C@@](O)(C3)C2` [Example 205, 2-[(2R,6S)-2,6-Dimethylmorpholin-4-yl]-N-[(2r,5 s)-5-hydroxytricyclo[3.3.1.13.7]dec-2-yl]-4-methoxypyrimidine-5-carboxamide], 102%.
Same read-out and setting: for `CC(C)Nc1ncc(C(=O)N[C@H]2C3CC4CC2C[C@@](O)(C4)C3)c(C2CCCC2)n1` [Example 121, 4-cyclopentyl-N-[(2r,5s)-5-hydroxyadamantan-2-yl]-2-(propan-2-ylamino)pyrimidine-5-carboxamide] the value was 104%; for `C[C@@H]1CN(CCNc2ncc(C(=O)N[C@H]3C4CC5CC3C[C@@](O)(C5)C4)c(C3CC3)n2)C[C@H](C)O1` [Example 73, 4-cyclopropyl-2-({2-[(2R,6S)-2,6-dimethylmorpholin-4-yl]ethyl}amino)-N-[(2r,5s)-5-hydroxyadamantan-2-yl]pyrimidine-5-carboxamide], 95.2%.
